Source: PubChem BioAssay AID1078 (Emory University Molecular Libraries Screening Center, 2008)

Target: Estrogen receptor (Homo sapiens) (UniProt P03372)
Assay: ERα transcriptional antagonism in reporter cells, dose response, orthogonal assay for ERα coactivator binding inhibitor project, HEC-1 cells, luciferase reporter, 1 nM E2 (AID 1078)
Conditions: ERE-luciferase reporter, 1 nM E2, 24 h

Sequence of Estrogen receptor (Homo sapiens) (P03372 whole entry, looked up): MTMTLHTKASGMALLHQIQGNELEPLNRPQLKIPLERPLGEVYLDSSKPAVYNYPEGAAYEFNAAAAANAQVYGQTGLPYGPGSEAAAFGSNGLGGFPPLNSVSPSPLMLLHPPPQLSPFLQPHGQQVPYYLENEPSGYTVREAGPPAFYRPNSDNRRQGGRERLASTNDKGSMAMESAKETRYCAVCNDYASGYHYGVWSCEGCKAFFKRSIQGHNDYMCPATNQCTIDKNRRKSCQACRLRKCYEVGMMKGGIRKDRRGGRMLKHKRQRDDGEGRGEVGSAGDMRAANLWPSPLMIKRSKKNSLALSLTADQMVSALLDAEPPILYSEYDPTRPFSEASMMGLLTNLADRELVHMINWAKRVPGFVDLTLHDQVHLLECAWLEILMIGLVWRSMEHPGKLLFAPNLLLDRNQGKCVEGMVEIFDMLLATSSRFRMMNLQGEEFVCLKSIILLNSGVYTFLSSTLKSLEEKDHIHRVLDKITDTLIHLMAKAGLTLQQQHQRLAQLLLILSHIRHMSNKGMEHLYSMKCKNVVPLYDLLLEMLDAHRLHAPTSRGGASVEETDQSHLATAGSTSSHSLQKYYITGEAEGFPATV

`Cc1ccc(-n2c(=O)c(C#N)cc3c(=O)n4cccc(C)c4nc32)cc1` was tested, and the IC50 was 4.65 µM.
